Data reported in patent publication US11167006B2 (Shanghai Tianci Life Science Development Co., Ltd., priority 2016, dated 2021).
Square brackets hold non-standard residues; d marks the D form. Peptide text beside a SMILES is read from it. NMeY = CN[C@@H](Cc1ccc(O)cc1)C(=O)O; NMeF = CN[C@@H](Cc1ccccc1)C(=O)O

Tested on: acute pain caused by photothermal therapy in male mice of Kunming strain
Assay: Mouse photothermal tail flick analgesia experiment
Format: in vivo
Conditions: lateral ventricle injection
Description: After the drug was injected into the lateral ventricle, intrathecal, subcutaneous, and intraperitoneal, the modulating activity on pain was measured by the photothermal tail flick test in mouse.
In the lateral ventricle administration, the lateral ventricle tube-buried surgery of the mouse should be performed in advance to ensure the accuracy of the drug injection site. A brain stereotaxic instrument was used in the lateral ventricle tube-buried surgery of the mouse. Male mice of Kunming strain, weighing 21±2 g; brain stereotaxic instrument is Jiangwan I. After the mice were anesthetized with sodium pentobarbital (i.p., 80 mg/kg mouse body weight), the hair in the head surgery area of the mouse was cut off and the mouse was placed on the brain stereotactic instrument and fixed. The surgery area was disinfected with iodophor, the scalp was opened along the sagittal suture to reveal the skull and the position of the anterior fontanelle can be found. 3 mm backward and 1 mm left/right from the anterior fontanelle, the upper position of the lateral ventricle can be found. A self-made stainless steel tube (a section of 24-gauge, which is connected to a small section of PE-10 tube) is inserted 3 mm downward according to the above position, which is the lateral ventricle. A section of stainless steel string (28-gauge) is inserted into the above-mentioned steel tube to prevent cerebrospinal fluid spillage and foreign matter infection and block the steel pipe. The steel tube is fixed with medical dental powder and glue, and after solidification, the wound is sutured. After the surgery, the mice were recovered tier 4 days, and the follow-up experiment was started on the 5th day. Surgical instruments, stainless steel tubes, etc. involved in the experiment need to be disinfected before the surgery. The mouse lateral ventricle was injected with 4 μl of the drug each time, and then the steel tube was rinsed with 1 μl of physiological saline.
Spinal cord level administration is performed by intrathecal injection in conscious mice, and the specific procedure is described in the method reported by Hylden and Wilcox (Eur. J. Pharmacol. 1980, 67: 313). A 25 μL microinjector was inserted directly into the subarachnoid space between L5 and L6.
The intraperitoneal administration was directly injected using a 1 mL syringe at an injection volume of 10 μl/g body weight. At the time of injection, the mouse was held by left hand with their abdomen facing up and the head was at low position while the tail was at high position. The side of the midline of the abdomen was taken, the needle hole of the syringe was upward, the needle tip penetrates into the skin in a direction less than 20 degrees, the needle tip was slightly pushed in the direction of the mouse head and sticking abdominal wall, and then punctures into the abdominal cavity in the direction of 45 degrees, and was withdrawn to confirm that it has not been pierced into the blood vessel or the intestine, afterwards the drug solution is slowly pushed out.
Subcutaneous injection was also administered directly using a 1 mL syringe in an injection volume of 10 μl/g body weight. At the time of injection, the neck and tail of the mouse were fixed in the left hand, and the head and body were inclined downward at 45 degrees. The needle hole of the syringe is upward, the needle tip is slowly pierced into the skin on the right side of the back center line at an angle of less than 20 degrees, and the needle tip is lightly picked up to confirm that there is no piercing, afterwards the drug solution is slowly pushed out.
Male mice of Kunming strain were used to detect the effects of drugs on pain perception using a photothermal tail flick instrument. The ambient temperature is controlled at 22±1° C., and the experimental animals are free to eat and drink. The basic tail flick incubation period (3-5 seconds) was determined prior to administration, and mice that were too sensitive or dull were discarded. […]

Row | Compound | ED50 value (nmol) (95% confidence interval), analgesic activity
1 | CN[C@@H](Cc1ccc(O)cc1)C(=O)N[C@H](C)C(=O)NCC(=O)N[C@@H](Cc1ccccc1)C(=O)N[C@@H](CCC(N)=O)C(=O)N1CCC[C@H]1C(=O)N[C@@H](CCC(N)=O)C(=O)N[C@@H](CCCNC(=N)N)C(=O)N[C@@H](Cc1ccccc1)C(N)=O [Compound 1] (H-[NMeY][dA]GFQPQRF-NH2) | 1.2980 (1.2000 to 1.4050) nmol
2 | C[C@@H](NC(=O)[C@@H](N)Cc1ccc(O)cc1)C(=O)NCC(=O)N(C)[C@@H](Cc1ccccc1)C(=O)N[C@@H](CCC(N)=O)C(=O)N1CCC[C@H]1C(=O)N[C@@H](CCC(N)=O)C(=O)N[C@@H](CCCNC(=N)N)C(=O)N[C@@H](Cc1ccccc1)C(N)=O [Compound 2, Tyr-D-Ala-Gly-NMe-Phe-Gln-Pro-Gln-Arg-Phe-NH2] (H-Y[dA]G[NMeF]QPQRF-NH2) | 0.3862 (0.3590 to 0.4154) nmol
3 | C[C@@H](NC(=O)[C@@H](N)Cc1ccc(O)cc1)C(=O)NCC(=O)N[C@@H](Cc1ccccc1)C(=O)NCC(=O)N1CCC[C@H]1C(=O)N[C@@H](CCC(N)=O)C(=O)N[C@@H](CCCNC(=N)N)C(=O)N[C@@H](Cc1ccccc1)C(N)=O [Compound 3] (H-Y[dA]GFGPQRF-NH2) | 0.4172 (0.3798 to 0.4583) nmol
4 | CC(C)C[C@H](NC(=O)[C@H](Cc1ccccc1)NC(=O)CNC(=O)[C@@H](C)NC(=O)[C@@H](N)Cc1ccc(O)cc1)C(=O)N1CCC[C@H]1C(=O)N[C@@H](CCC(N)=O)C(=O)N[C@@H](CCCNC(=N)N)C(=O)N[C@@H](Cc1ccccc1)C(N)=O [Compound 4] (H-Y[dA]GFLPQRF-NH2) | 0.1865 (0.1509 to 0.2304) nmol
5 | CSCC[C@H](NC(=O)[C@H](Cc1ccccc1)NC(=O)CNC(=O)[C@@H](C)NC(=O)[C@@H](N)Cc1ccc(O)cc1)C(=O)N1CCC[C@H]1C(=O)N[C@@H](CCC(N)=O)C(=O)N[C@@H](CCCNC(=N)N)C(=O)N[C@@H](Cc1ccccc1)C(N)=O [Compound 5] (H-Y[dA]GFMPQRF-NH2) | 0.2957 (0.2637 to 0.3338) nmol
6 | CSCC[C@@H](NC(=O)[C@H](Cc1ccccc1)NC(=O)CNC(=O)[C@@H](C)NC(=O)[C@@H](N)Cc1ccc(O)cc1)C(=O)N1CCC[C@H]1C(=O)N[C@@H](CCC(N)=O)C(=O)N[C@@H](CCCNC(=N)N)C(=O)N[C@@H](Cc1ccccc1)C(N)=O [Compound 6, Tyr-D-Ala-Gly-Phe-D-Met-Pro-Gln-Arg-Phe-NH2] (H-Y[dA]GF[dM]PQRF-NH2) | 0.3986 (0.3716 to 0.4275) nmol
7 | CC(C)C[C@@H](NC(=O)[C@H](Cc1ccccc1)NC(=O)CNC(=O)[C@@H](C)NC(=O)[C@@H](N)Cc1ccc(O)cc1)C(=O)N1CCC[C@H]1C(=O)N[C@@H](CCC(N)=O)C(=O)N[C@@H](CCCNC(=N)N)C(=O)N[C@@H](Cc1ccccc1)C(N)=O [Compound 7, Tyr-D-Ala-Gly-Phe-D-Leu-Pro-Gln-Arg-Phe-NH2] (H-Y[dA]GF[dL]PQRF-NH2) | 0.4367 (0.3865 to 0.4934) nmol
8 | C[C@@H](NC(=O)[C@@H](N)Cc1ccc(O)cc1)C(=O)NCC(=O)N[C@@H](Cc1ccccc1)C(=O)N[C@H](C)C(=O)N1CCC[C@H]1C(=O)N[C@@H](CCC(N)=O)C(=O)N[C@@H](CCCNC(=N)N)C(=O)N[C@@H](Cc1ccccc1)C(N)=O [Compound 8, Tyr-D-Ala-Gly-Phe-D-Ala-Pro-Gln-Arg-Phe-NH2] (H-Y[dA]GF[dA]PQRF-NH2) | 0.3361 (0.2864 to 0.3944) nmol
